In patent US20180021320A1, “Method of Preventing or Treating Hearing Loss” (SUPPORT-VENTURE GMBH, priority 2015, published 2018):
Entries after “also recorded” stand apart in the source; their conditions may differ.

What was measured:
[1] = test system: hair cells of mouse OC's in culture; experiment: Protection against gentamicin-induced hair cell loss in mouse organ of Corti explants; type: cell-based; conditions: 24 h; for loss of hair cells: 50 μM gentamicin alone
Protocol: (§1) OCs were harvested then placed in culture medium [Dulbecco's Modified Eagle Medium supplemented with 10% FCS, 25 mM HEPES and 30 U/ml penicillin (Invitrogen, Carlsbad, Calif., USA)] and incubated for 24 hours at 37° C. in an atmosphere of 95% O2/5% CO2. After that period, the culture medium was replaced with fresh medium containing no compound or 200 μM gentamycin alone or 200 μM gentamicin with either 2 or 10 μM pioglitazone, and incubated for a further 48 hours at 37° C. Ten OC explants were used for each treatment condition.
(§2) After incubation with compounds, the OCs were fixed in 4% paraformaldehyde, washed and then stained with a fluorescein (FITC)-conjugated phalloidin to detect inner and outer hair cells. After staining, the OCs were visualized and photographed using a fluorescence microscope (Olympus FSX100). Outer and inner hair cells were separately quantitated for the apical, basal, and middle turn of each organ of Corti. The values for each turn were averaged for the 10 OCs used for each condition. Significant differences between treatment groups in numbers OHC and IHC were determined using analysis of variance (ANOVA) followed by the least significant difference (LSD) post-hoc test (Stat View 5.0). Differences associated with P-values of less than 0.05 were considered to be statistically significant. All data are presented as mean±SD.
Methods were similar to those in Example 1. The main differences were that mouse OC's were used rather than rat OC's. Moreover, treatment was performed for 24 hrs with 50 μM gentamicin. The number of OC's used for each experimental condition was 3-5. The concentrations of test substances were 2 μM and 10 μM for tesaglitazar and muraglitazar, and 25 μM and 150 μM for fenofibric acid.

[2] = test system: hair cells of organ of Corti (OC) explants; experiment: Protection against gentamicin-induced hair cell loss in rat organ of Corti explants; type: cell-based, Sprague-Dawley rats
Protocol: All animal procedures were carried out according to protocols approved by the Kantonales Veterinäramt, Basel, Switzerland. Postnatal day 5 (p5) Sprague-Dawley rats were used for the studies. Studies were performed in vitro, using organ of Corti (OC) explants from p5 animals. Animals were sacrificed and the cochleae carefully dissected to separate the organ of Corti from the spiral ganglion, stria vascularis and Reissner's membrane [Sobkowicz H M, Loftus J M, Slapnick S M. Acta Otolaryngol Suppl. 1993; 502:3-36].
as §1, §2

[3] = test system: noise-induced hearing loss; experiment: Protection against noise-induced hearing loss, auditory brainstem response (ABR); type: in vivo, guinea pigs; conditions: for threshold shift (ABR), mean±SD: single 40 μl round window application day before noise
Excerpt: The guinea pig model is the preferred animal species in hearing research. The agent application as well as the noise trauma was applied under general anesthesia. Upon arrival, animals underwent an acclimatization period of at least one week prior to experiments.
Guinea pigs were first anaesthetized and hearing evaluated by a standard ABR method then into treatment groups. Each animal received a single round window application of test substance to both ears. The following day, animals were exposed to 115 dB broad band noise for 2 hrs under anaesthesia. At one and two weeks following noise exposure, the animals underwent a second hearing evaluation.
Animals were dosed with a single 40 μl application of pioglitazone formulation or matching vehicle, onto the cochlear round window in both ears the day prior to noise exposure. For this approach, a hole was drilled in the rostral part of the skull to directly access the Bulla which allows drug application to the round window under visual control.
Animals were noise-exposed in a soundproof chamber (0.8×0.8×0.8 m, minimal attenuation 60 dB) for 2 h to broadband white noise (5-20 kHz) at 115 dB sound pressure level (SPL) under anaesthesia (60 mg/kg ketamine and 6 mg/kg xylazine). Noise was delivered binaurally by loudspeakers (HTC 11.19; Visaton, Haan, Germany) placed above the animal's head. The speakers were connected to an audio amplifier (Tangent AMP-50; Aulum, Denmark) and a DVD player.
At baseline before the noise exposure and on day 7 and 14 after noise, frequency-specific (2; 4; 8; 12; 16; 20; 24; 28; 32; 36; 40 kHz) auditory brainstem responses (ABR) were recorded in all treated animals and in controls. Auditory stimuli were delivered binaurally at different SPLs with a sinusoid generator (Model SSU2; Werk Fernmeldewesen, Berlin, Germany). Frequency output was controlled and adjusted with a digital counter (1941A Digital Counter; Fluke, Scarborough, Ontario, Canada). Sub-dermal needle electrodes were placed at the vertex (active), mastoid (reference), and in one foot (ground). ABR recordings were carried out with a Viking IV-measurement system (Viasys Healthcare, Conshohocken, Pa.). The brainstem responses were amplified (100,000×), filtered (bandpass 0.15-3 kHz), and averaged (300×) by the Viking IV-system. The amplitudes of the ABR waves were measured at different sound intensities by changing the attenuation of signal amplification. The amplitude-growth function was calculated for each tested frequency, and a linear regression was fitted to the linear portion of the data. The hearing threshold could be calculated for each frequency by extrapolating the linear amplitude-grow function of the regression line to zero. […]

[4] = 2 μM test substance with 50 μM gentamicin
[5] = 10 μM test substance with 50 μM gentamicin
[6] = concentration not stated, 50 μM gentamicin, medio-basal turns

For Tesaglitazar, the “protection from gentamicin-dependent hair cell loss” value [1, 4] was “able to antagonize the effects of gentamicin and to preserve hair cell number and morphology”, the “protection from gentamicin-dependent hair cell loss” value [1, 5] was “able to antagonize the effects of gentamicin and to preserve hair cell number and morphology” and the “protection from gentamicin-dependent hair cell loss” value [1, 6] was “protected from gentamicin-dependent hair cell loss; also recorded: significantly prevent gentamicin-dependent hair cell loss”.
For gentamicin, the “reduction of hair cell number” value ([2]; 200 μM gentamicin alone, 48 h in culture, each segment) was 50-70%, the “loss of hair cells” value [1] was “approximately 50%” and the “loss of hair cells” value ([1]; listed as Gentamicin) was 50%.
In the case of `COc1ccc(OC(=O)N(CC(=O)O)Cc2ccc(OCCc3nc(-c4ccccc4)oc3C)cc2)cc1` [Muraglitazar], the “protection from gentamicin-dependent hair cell loss” value [1, 4] is reported as “not effective”, the “protection from gentamicin-dependent hair cell loss” value [1, 5] is reported as “partially protective” and the “protection from gentamicin-dependent hair cell loss” value [1, 6] is reported as “protected from gentamicin-dependent hair cell loss; also recorded: significantly prevent gentamicin-dependent hair cell loss”.
In the case of `CCc1ccc(CCOc2ccc(CC3SC(=O)NC3=O)cc2)nc1` (stereo not drawn) [Pioglitazone, pioglitazone], the “prevention of gentamicin-dependent hair cell loss (IHC and OHC; apical, basal, middle turns)” value ([2]; 2 μM pioglitazone with 200 μM gentamicin, 48 h) is reported as “significantly prevent gentamicin-dependent hair cell loss in all turns”, the “prevention of gentamicin-dependent hair cell loss (IHC and OHC; apical, basal, middle turns)” value ([2]; 2 μM pioglitazone with 200 μM gentamicin, 48 h, listed as pioglitazone) is reported as “completely prevent gentamicin-dependent hair cell loss in all turns” and the “prevention of gentamicin-dependent hair cell loss (IHC and OHC; apical, basal, middle turns)” value ([2]; 10 μM pioglitazone with 200 μM gentamicin, 48 h) is reported as “significantly prevent gentamicin-dependent hair cell loss in all turns”. The “prevention of gentamicin-dependent hair cell loss (IHC and OHC; apical, basal, middle turns)” value ([2]; 10 μM pioglitazone with 200 μM gentamicin, 48 h, listed as pioglitazone) was “completely prevent gentamicin-dependent hair cell loss in all turns”, the “prevention of gentamicin-dependent hair cell loss” value ([2]; pioglitazone co-treatment, concentration not stated, 48 h) was “almost completely preventing gentamicin-dependent hair cell loss” and the “reduction in the threshold shifts vs. vehicle controls” value ([3]; hearing recorded 7-14 days after noise trauma) was over 50%. For the same compound, the “threshold shift (ABR), mean±SD” value ([3]; one week after noise (115 dB, 2 h), 5-20 kHz) was 12.7±1.3 dB, the “protection from noise-induced hearing loss” value ([3]; one week after noise, vs. vehicle) was “approximately 60%” and the “threshold shift (ABR), mean±SD” value ([3]; two weeks after noise (115 dB, 2 h)) was 6.3±3.9 dB.
fenofibric acid was tested, and the “protection from gentamicin-dependent hair cell loss” value ([1]; 25 μM test substance with 50 μM gentamicin) was “not effective”, the “protection from gentamicin-dependent hair cell loss” value ([1]; 150 μM test substance with 50 μM gentamicin) was “completely protective” and the “protection from gentamicin-dependent hair cell loss” value [1, 6] was “protected from gentamicin-dependent hair cell loss; also recorded: significantly prevent gentamicin-dependent hair cell loss”.
